Laboratory results taken from patent publication EP2108650A1, “Novel aureothin derivatives” (Leibniz-Institut für Naturstoff-Forschung und …, priority 2008, dated 2009).
Where two headings read alike, the source gives them in different places.

Legend:
[1] = tested on: human K-562 leukemia cells; test: Antiproliferative assay on K-562 cells (CellTiter-Blue viability readout); type: cell-based; conditions: for IC50: Homo sapiens; for increase of antiproliferative activity compared to aureothin: ratio of IC50 versus aureothin
Protocol: Cells were grown in the appropiate cell culture medium supplemented with 10 mL L^-1 ultraglutamine 1 (Cambrex 17-605E/U1), 500 µL L^-1 gentamicin sulfate (CAMBREX 17-518Z), and 10% heat inactivated fetal bovine serum (PAA A15-144) at 37°C in high density polyethylene flasks (NUNC 156340).
The test substances are dissolved in DMSO before being diluted in DMEM. […] were harvested at the logarithmic growth phase after soft trypsinization, using 0.25% trypsin in PBS containing 0.02% EDTA (Biochrom KG L2163). For each experiment approximately 10,000 cells were seeded with 0.1 mL culture medium per well of the 96-well microplates (NUNC 167008).
The cells were incubated with dilutions of the test substances for 72 hours at 37°C in a humidified atmosphere and 5% CO2.
For estimating the influence of chemical compounds on cell proliferation of K-562 we determinate the numbers of viable cells present in multiwell plates via CellTiter-Blue® assay. It uses the indicator dye resazurin to measure the metabolic capacity of cells as indicator of cell viability. Viable cells of untreated control retain the ability to reduce resazurin into resorufin, which is highly fluorescent. […] Under our experimental conditions, the signal from the CellTiter-Blue® reagent is proportional to the number of viable cells.
The GI50 and CC50 values were defined as being where the concentration-response curve intersected the 50% line, compared to untreated control. These comparisons of the different values were performed with software Magellan (TECAN).
A repeat determination has been conducted in all cases.

[2] = tested on: fungal strains like Candida albicans, Sporobolomyces salmonicolor, Penicillium notatum, Glomerella or several Aspergillus spp.; test: Antimicrobial / antifungal activity testing; type: cell-based; conditions: qualitative; compared with the other antimicrobial activities or with aureothin
[3] = K562, DOA derivatives, K-562 cells, 72 h incubation (assay inferred; table has no title), read-out: IC50

SMILES | IC50 ([1]; K562, 72 h) [nM] | IC50 [1, 3] [µg/mL] | IC50 ([1]; K562, read-out: IC50 antiproliferative activity against K-562 cells) [nM] | increase of antiproliferative activity compared to aureothin ([1]; K-562 cells) | effect against fungal strains [2]
COc1oc(CC/C(C)=C/C(C)=C/c2ccc([N+](=O)[O-])cc2)c(C)c(=O)c1C [Deoxyaureothin, deoxyaureothin, reference compound] | – | – | 5000 | 5 fold | –
COc1oc(CC/C(C)=C/C(C)=C/c2ccc(Br)cc2)c(C)c(=O)c1C [R = Ar-Br, p-bromo-DOA] | 1000 | 0.5 | – | – | –
COc1oc(CC/C(C)=C/C(C)=C/c2ccc(C#N)cc2)c(C)c(=O)c1C [R = Ar-CN, deoxyaureonitrile] | 1000 | 0.5 | – | up to 25 fold | activities comparable to aureothin
COc1oc(CC/C(C)=C/C(C)=C/c2ccc(Cl)cc2)c(C)c(=O)c1C [R = Ar-Cl, p-chloro-DOA] | 2000 | 0.8 | – | – | –
COc1oc(CC/C(C)=C/C(C)=C/c2ccc3ccccc3c2)c(C)c(=O)c1C [R = Ar-Ph, 2-naphthoate-DOA] | 21000 | 8 | – | – | –

Further lines, with some results ahead:

IC50 ([1]; K562, 72 h) [nM] | IC50 [1, 3] [µg/mL] | SMILES | IC50 ([1]; K562, read-out: IC50 antiproliferative activity against K-562 cells) [nM] | increase of antiproliferative activity compared to aureothin ([1]; K-562 cells) | effect against fungal strains [2]
1000 | 0.5 | COc1oc(CC/C(C)=C/C(C)=C/c2ccc(F)cc2)c(C)c(=O)c1C [R = Ar-F, p-fluoro-DOA] | – | – | –
1000 | 0.5 | COc1oc(CC/C(C)=C/C(C)=C/c2ccc(I)cc2)c(C)c(=O)c1C [R = Ar-I, p-iodo-DOA] | – | – | –
